Source: patent US12065447B2, “Heterocyclic amide for inhibiting RIP1 kinase and uses thereof” (SHANGHAI INSTITUTE OF MATERIA MEDICA, CHINESE ACADEMY OF …, priority 2018, dated 2024)

Assays:
[1] = tested on: TNFα induced systemic inflammatory response syndrome (SIRS); test: TNFα induced C57BL/6 mouse systemic inflammatory response syndrome (SIRS) model (hypothermic shock); assay type: in vivo; details: mTNFα 5 μg/mouse tail vein, drug by gavage 15 min before modeling
Description: TNFα Induced C57BL/6 Mouse Systemic Inflammatory Response Syndrome (SIRS) Model
Source, stirp and strain: C57BL/6 pure mouse, female, 18-20 g, purchased from Shanghai Lingchang Biotechnology Co., Ltd., license No. SCXK (Shanghai) 2013-0018. The animals were bred in the SPF animal room of Building No. 2 of the Shanghai institute of Materia Medica, and the experimental animal use license number is SYXK (Shanghai) 2013-0049. The animals were bred for at least one week before use at 22±1° C. with a humidity of 55±5% and 12 h light and dark cycle. Both feed and water are freely ingested by the animals after disinfection. All experiments were carried out in strict accordance with the relevant regulations on experimental animals.
2. Test Reagents and Materials: • 1) Recombinant Mouse mTNFα was purchased from Shanghai JIN′AN Biological Company. • 2) Experimental materials: 1.5 mL centrifuge tubes were purchased from Axygen Company, 15 mL and 50 mL centrifuge tubes were purchased from Corning Company; commonly used surgical instruments (ophthalmic scissors, large tweezers, small tweezers, tissue scissors) and 1 mL, 2 mL, and 10 mL disposable plastic dispensers were purchased from Sinopharm Chemical Reagent Co., Ltd.; pipettes of various specifications were purchased from Eppendorf Company; tips of various specifications were purchased from Axygen and Sartoruris Company. • 3) Experimental equipments: the syringe adopts omnican insulin syringes, a disposable syringe adopts sterile insulin syringe with a product number of 9161635, and an outer diameter and length of the needle tube of 0.30*8 mm; the mouse tail vein syringe is model YLS-Q9G purchased from Jinan Yyan Technology Development Co., Ltd.; Laboratory animal rectal temperature measuring instrument was model ALC-ET06 purchased from Shanghai Alcott Biotechnology Co., Ltd.
3. Reagents and Compound Preparation Methods: • 1) Recombinant Mouse mTNFα: mTNFα lyophilized powder was dissolved in PBS to prepare a stock solution of 200 μg/mL, and stored in a refrigerator at −20° C. after sub-packaging. The stock solution was put in a refrigerator at 4° C. overnight to reach dissolution equilibrium when in use. […] The drug concentration was determined comprehensively according to the results of in vitro experiments and the pharmacokinetic properties.
4. […] Therefore, the model with tail vein injection of TNFα was selected as the classic model for an animal level screen of RIP1 inhibitor. • 2) Experimental process: • a) The experimental animals were randomly grouped according to their body weight one day in advance, and there are 8 animals in each group. • b) On the day of the experiment, mTNFα and sterile PBS were diluted according to the above method, sucked into an insulin syringe at 125 μl/piece, that is, 5 μg/mice. • c) The drug was administered 15 min before modeling by gavage at 0.2 mL/mouse. • d) 15 min after administration, the modeling was started by injection of PBS or mTNFα into the tail vein, the injection was conducted according to the above dose. • e) After modeling, the rectal temperature was measured every 1 h and the survival rate was measured.
5. Testing Indicators: • 1) Animal body temperature: The rectal temperature was measured every 1 h after modeling. […]

[2] = Study on oral pharmacokinetics in rats; assay type: in vivo; details: rat, plasma, male SD rats, 3 mg/kg by gavage, average; for AUC(0-inf): extrapolated to infinity, read-out: AUCINF_obs; for MRT inf: read-out: Average residence time MRTINF_obs; for half-life: read-out: Half life T1/2 (converted); for Cmax: read-out: Peak plasma concentration Cmax
Description: Study on Oral Pharmacokinetics in Rats • 1. […] The pharmacokinetic behaviors of the compounds of the present invention in rats were studied, and the pharmacokinetic properties of the compounds were evaluated. • 2. The test animals are healthy adult male SD rats, 3 in each group. • 3. […] Liquid chromatography tandem mass spectrometry (LC-MS/MS) was used to determine the plasma concentration of test compounds in rat after intragastrical administration of different compounds.

Row | SMILES | Survival rate [1] [%] | AUC(0-t) [2] [ng·h/mL] | AUC(0-inf) [2] [ng·h/mL] | MRT inf [2] [h] | half-life [2] [h] | Cmax [2] [ng/mL]
1 | CN1C(=O)[C@@H](NC(=O)c2n[nH]c(Cc3ccccc3)n2)COc2ccccc21 [GSK2982772, reference compound] | 100 |  |  |  |  | 
2 | Cc1c(C#Cc2cnn(C)c2)sc2c1SC[C@H](NC(=O)c1nnc(Cc3ccccc3)[nH]1)C(=O)N2C [ZB-R-39] |  | 1680 | 1700 | 4.07 | 3.46 | 525
3 | CN1C(=O)[C@@H](NC(=O)c2n[nH]c(Cc3ccccc3)n2)COc2ccc(C#Cc3ccccn3)cc21 [ZB-R-50] | 100 | 3110 | 3120 | 2.2 | 1.56 | 1450
4 | CN1C(=O)[C@@H](NC(=O)c2n[nH]c(Cc3ccccc3)n2)COc2ccc(C#Cc3cccnc3)cc21 [ZB-R-51] |  | 4210 | 4290 | 2.8 | 1.79 | 1360
5 | CN1C(=O)[C@@H](NC(=O)c2n[nH]c(Cc3ccccc3)n2)COc2ccc(C#Cc3ccncc3)cc21 [ZB-R-52] |  | 1560 | 1560 | 1.61 | 0.81 | 755
6 | CN1C(=O)[C@@H](NC(=O)c2n[nH]c(Cc3ccccc3)n2)COc2ccc(C#Cc3cnn(C)c3)cc21 [ZB-R-53] | 100 | 4500 | 4650 | 2.41 | 1.54 | 1760
7 | CN1C(=O)[C@@H](NC(=O)c2n[nH]c(Cc3ccccc3)n2)COc2ccc(C#CC3CCOCC3)cc21 [ZB-R-54] | 100 | 1240 | 1250 | 2 | 1.14 | 667
8 | CN1C(=O)[C@@H](NC(=O)c2n[nH]c(Cc3ccccc3)n2)COc2ccc(C#CC3CC3)cc21 [ZB-R-55] | 100 | 25700 | 26100 | 7.23 | 3.71 | 2900
